Reference: publication PMC11063903, “Engineering a human P2X2 receptor with altered ligand selectivity in yeast” (The Journal of Biological Chemistry, 2024)

Assays:
human P2X2 receptor [1] = target: T1, human P2X2 receptor (Homo sapiens, UniProt Q9UBL9); experiment: GCaMP calcium assay of P2X2 expressed in yeast S. cerevisiae, agonist response; type: cell-based; conditions: yeast; for EC50: read-out: EC50
T1 construct: expressed in transfected cells; host or cells: S. cerevisiae BY4741 background, P2X2 genome-integrated under a galactose-inducible promoter
T1 sequence (Q9UBL9 1-471): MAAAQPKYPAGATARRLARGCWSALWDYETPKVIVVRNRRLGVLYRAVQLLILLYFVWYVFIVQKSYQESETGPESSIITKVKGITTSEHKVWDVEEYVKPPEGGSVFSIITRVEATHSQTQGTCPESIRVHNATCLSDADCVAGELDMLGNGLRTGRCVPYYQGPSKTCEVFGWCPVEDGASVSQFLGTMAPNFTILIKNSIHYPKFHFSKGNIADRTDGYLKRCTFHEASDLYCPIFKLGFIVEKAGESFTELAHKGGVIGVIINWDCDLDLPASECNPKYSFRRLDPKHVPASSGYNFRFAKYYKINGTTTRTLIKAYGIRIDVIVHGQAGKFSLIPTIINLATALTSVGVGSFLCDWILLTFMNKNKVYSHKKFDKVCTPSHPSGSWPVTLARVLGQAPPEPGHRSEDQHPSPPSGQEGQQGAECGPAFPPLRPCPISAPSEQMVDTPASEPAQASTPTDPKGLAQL
Description: Although P2X receptors are expressed in many eukaryotic organisms including some fungi ([24]), they are not present in S. cerevisiae. For recombinant expression to yield functional P2X channels, receptor proteins must be correctly folded, assembled into trimers, and efficiently trafficked to the plasma membrane. To assess whether P2X ion channels could functionally gate in S. cerevisiae the canonical isoforms of P2X1-7 were co-expressed with aequorin, a calcium-activated photoprotein from the jellyfish Aequorea victoria.
(§1) Genetic knockouts of the calnexin homolog (ΔCne1p) and vacuolar calcium transporter (Δ Vcx1p) (n = 3) were compared to the WT yeast strain (n = 2). […] Statistical analysis was performed using one-way ANOVA with Dunnett’s multiple comparisons test where ∗∗ is p ≤ 0.01. […] Yeast were injected with ATP at 21 s and onset rates from the last six points (40–48 s) were used for calculating the dose response in (D). E and F, kinetic and dose–response measurements of P2X2 with the GCaMP reporter with ATP (n = 4), partial agonist BzATP (n = 3), and agonist 2-chloro-ATP (n = 4). Figures (D and F) share the figure legend with (C). […] Suramin was pre-equilibrated with P2X2-yeast for 10 min and 5 μM ATP was injected.
To expand the assay throughput to accommodate several 96-well plates at a time, we required the acquisition of short-duration signals. Since GCaMP signals are typically measured in terms of ΔF/F0, where ΔF is Fmax-Fmin, and since the signal takes several minutes to reach Fmax, we instead attempted to correlate the rate of signal onset (rather than its amplitude) with channel activity.
Having optimized our yeast strains and assay throughput, we sought to further validate the function of human P2X2 in the yeast host.
GCaMP assays were performed as follows. P2X2 GCaMP strains were designed with a bi-cistronic reporter, in which the GCaMP protein was followed by a 2A peptide and a mScarletI reporter ([53]). The co-translated mScarletI was designed to act as a control for plasmid loss, GCaMP breakage via nonsense mutation, and contamination. […] P2X2-GCaMP strains were cultured and induced as previously described. Samples were induced for 24 h to allow for the accumulation of the mature GCaMP protein. Cells were washed three times in 0.1 M MES/Tris buffer and resuspended with MES/Tris with supplemental calcium. Cells were loaded onto a black, clear bottom microplate and imaged on a FlexStation3 plate reader. Samples were imaged in “flex” mode. Samples were imaged for 48 s at an interval of 1.6 s. Fluorescence was measured with an excitation at 485 nm, and emission 525 nm. At the 21 s mark, 100 μl ligand solution was transferred to the cells. For strains with mScarlet, fluorescence was read with excitation 570 nm/emission 610 nm. Slopes were calculated from the last 6 points of measurement and were normalized to the positive control samples. Any replicate in which the mScarlet value was measured to be over 2 standard deviations less than the mean for that set was discarded from further analysis.

P2X2 [2] = conditions: mammalian cells; cited from earlier work
human P2X2 receptor [3] = target: T1, human P2X2 receptor; experiment: Suramin inhibition of ATP-stimulated P2X2 gating in yeast, GCaMP; type: cell-based; conditions: suramin pre-equilibrated 10 min, 5 μM ATP injected, n = 4; read-out: IC50 (second value in brackets) (converted)
Experimental: as §1, with “injected. […]” for “injected.”
GCaMP assays were performed as follows. […] Cells were loaded onto a black, clear bottom microplate and imaged on a FlexStation3 plate reader. […] Fluorescence was measured with an excitation at 485 nm, and emission 525 nm. […] For strains with mScarlet, fluorescence was read with excitation 570 nm/emission 610 nm. Slopes were calculated from the last 6 points of measurement and were normalized to the positive control samples. Any replicate in which the mScarlet value was measured to be over 2 standard deviations less than the mean for that set was discarded from further analysis.

P2X2 [4] = system: P2X2; set-up: method as in PMID 12885270; conditions: read-out: reported IC50 values; cited from earlier work
[5] = kinetic and dose-response GCaMP assay, Fig. 1E-F

Row | Compound | peak amplitudes relative to the canonical ATP ligand (human P2X2 receptor [1]; GCaMP kinetic assay) | pEC50 (human P2X2 receptor [1]; [5]) | EC50 (human P2X2 receptor [1]; [5]) | EC50 (P2X2 [2]) | IC50 (human P2X2 receptor [3]) | IC50 (P2X2 [4])
1 | 2′(3′)-O-(4-Benzoylbenzoyl)adenosine-5′-triphosphate [BzATP] | less than 50% | 5.89 ± 0.096 M | 1280 nM | – | – | –
2 | Nc1nc(Cl)nc2c1ncn2[C@@H]1O[C@H](COP(=O)(O)OP(=O)(O)OP(=O)(O)O)[C@@H](O)[C@H]1O [2-Chloro ATP, 2-Chloro-Adenosinetriphosphate] | – | – | 1000 nM | 2500 nM | – | –
3 | Cc1ccc(C(=O)Nc2ccc(S(=O)(=O)O)c3cc(S(=O)(=O)O)cc(S(=O)(=O)O)c23)cc1NC(=O)c1cccc(NC(=O)Nc2cccc(C(=O)Nc3cc(C(=O)Nc4ccc(S(=O)(=O)O)c5cc(S(=O)(=O)O)cc(S(=O)(=O)O)c45)ccc3C)c2)c1 [suramin] | – | – | – | – | 26900 nM | 10000 nM
